In US20240115564A1, “HTR1F ANTAGONISTS FOR IMPROVEMENT OF BETA CELL SURVIVAL AND FUNCTION” (The Regents of the University of California, priority 2021, published 2024):

Key:
human islets = assay: Glucose-stimulated insulin release in human islets; format: cell-based; details: 150 nM, 11 mM glucose, 9 human islet donors, vs DMSO
Method: Human islets were rested for 24 hours after receipt in CMRL 1066 (Media Tech) supplemented with penicillin and streptomycin, B27 supplement, Glutamax (Thermo), and non-essential amino acids (Thermo). For both the test treatment group and the control treatment group, 40-60 islets for each of the 5 replicates were hand-picked. The islets were equilibrated for two hours at 37° C. in Kreb-Ringer Bicarbonate HEPES Buffer pH 7.4 (KRBH; 137 mM NaCl, 4.7 mM KCl, 1.2 mM KH2PO4, 1.2 mM MgSO4, 2.5 mM CaCl2), 25 mM NaHCO3, 20 mM HEPES, 2.8 mM glucose, and 0.25% BSA). Equilibration buffer was then removed and islets were incubated at 37° C. with KRBH pH 7.4 with 2.8 mM glucose and 0.25% BSA and were treated with DMSO or 150 nM HTR1F antagonist 1-(2-hydroxy-3-(naphthalen-2-yloxy)propyl)-4-(quinolin-3-yl)piperidin-4-ol. After 1 hour, islet secretion was collected and islets were treated with KRBH pH 7.4 containing 11 mM glucose and 0.25% BSA and were treated with DMSO or 150 nM antagonist at 37° C. for another hour. Following incubation, islet secretions were collected and the islets were lysed in RIPA buffer to determine the total islet insulin content. Islet secretions were diluted 2-5 fold for analysis with the Mercodia insulin ELISA kit and lysates were diluted 200-500 fold for analysis. […]

HTR1F [1] = molecular target: T1, HTR1F (Homo sapiens, UniProt P30939); assay: Glosensor cAMP assay in 293T cells transfected with HTR1F cDNA; format: cell-based; parameters: from tissue; host or cells: primary human islets from cadaveric donors, transplanted under the kidney capsule of scid-beige mice; details: 10 minutes pre-treatment, serotonin 5 nM then forskolin
T1 sequence (P30939 1-366): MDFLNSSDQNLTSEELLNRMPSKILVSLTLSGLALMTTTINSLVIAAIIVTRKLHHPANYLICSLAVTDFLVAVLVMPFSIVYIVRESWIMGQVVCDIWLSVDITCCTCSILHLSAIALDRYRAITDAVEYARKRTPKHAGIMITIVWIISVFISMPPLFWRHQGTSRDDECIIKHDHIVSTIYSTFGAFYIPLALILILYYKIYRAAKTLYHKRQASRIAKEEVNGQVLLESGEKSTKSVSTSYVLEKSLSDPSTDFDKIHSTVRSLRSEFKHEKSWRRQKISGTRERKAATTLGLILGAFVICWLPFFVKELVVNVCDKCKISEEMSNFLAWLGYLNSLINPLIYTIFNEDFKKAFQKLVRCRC
Method: 293T cells were transiently transfected with the Glosensor plasmid (Promega) and the HTR1F cDNA. The cells were pre-treated with 1-(2-hydroxy-3-(naphthalen-2-yloxy)propyl)-4-(quinolin-3-yl)piperidin-4-ol at the concentrations shown in FIG. 4 for 10 minutes, then with serotonin (5 nM), and then forskolin and luminescence was determined. n=5, error bars show standard error. […] N=5 per concentration.

primary human islet cell = assay: Sytox Green cell death assay in dissociated human islets treated with HTR1F agonist; format: cell-based; details: 24 hours, two independent donors
Method: Dissociated human islets were treated with the indicated doses of LY344864 for 24 hours. Dead cells were monitored by Sytox Green. The number of Sytox Green nuclei were normalized to cell density measured by bright field imaging. n=4 biological replicates for each donor. *p<0.05, **p<0.01 by post-hoc Student's t-test after one-way ANOVA versus vehicle treatment.
(§1) Human beta cell death and proliferation: Islets were dissociated and plated on 804G coated plates as done for the screens. For Sytox Green assays, islets were plated into 96 well plates and Sytox Green (Thermo) was added to the media (30 nM) and green fluorescence and bright field images were captured at 24 hours during culture (Incucyte). The number of green nuclei normalized to the cell density (calculated by brightfield image) was measured in biological triplicate (FIG. 2A). For FIG. 3C, dead nuclei were normalized to total nuclei as measured after treatment of the cells with 0.0625% Triton X-100. For the in vitro TUNEL assay (FIG. 2B and FIG. 2C), cells were fixed in 4% paraformaldehyde in calcium/magnesium free PBS for 15 minutes at room temperature, permeabilized with 0.1% Triton X-100 for 1 hour, blocked with 10% donkey serum in PBS for 1 hour at room temperature, and stained with guinea pig anti-insulin antibody (Agilent) overnight at 4 degrees. […]

primary human beta cells = assay: TUNEL / insulin staining of dissociated human islets (beta cell death); format: cell-based; details: at 10 nM, 24 hours, 4 donors
Method: A representative image is shown. White arrows represent cells that are TUNEL+ insulin+ cells. Scale bar is 25 μM.
Given differences in baseline cell death between donors, the fold increase in the fraction of TUNEL+ beta cells over vehicle control is plotted. Standard error is shown, n=4 donors with at least 400 beta cells counted for each donor. *p<0.05, one-way ANOVA, post-hoc tested against vehicle.
as §1

HTR1F [2] = molecular target: T1, HTR1F; details: read-out: reported EC50; cited from earlier work
other HTR1 receptors = details: cited from earlier work
[3] = molecular target: other serotonin family GPCRs and adrenergic receptors; details: cited from earlier work
dissociated human islets = assay: Sytox Green cell death in dissociated human islets with thapsigargan and methysergide; format: cell-based; details: 48 hours
Method: Each graph is from an independent donor. *p<0.05 for thapsigargan and for the interaction between methysergide and thapsigargan by 2-way ANOVA. Standard error is shown.
as §1, with “degrees. Secondary antibody was anti-guinea pig 488 (Thermo) at 1:300 for 1 hour at room temperature. For TUNEL staining, In Situ Death Detection Kit, TMR red (Roche) was used per the manufacturer's protocol in combination with insulin staining as above.” for “degrees.”

[4] = test system: scd beige mice receiving human islets; assay: Minimal (marginal mass) human islet transplant model with methysergide; format: in vivo, mouse; details: islets 300 nM 24 hours; mice 10 mg/kg daily peri-transplant, 5 days; p<0.05 log-rank
Method: Taken together, FIGS. 3A-3D illustrate the prevention of human beta cell death by blocking of HTR1F signaling.
Minimal human islet transplant model with methysergide: Human islets were treated with 300 nM methysergide maleate or vehicle for 24 hours after isolation. Seven-hundred IEq were then transplanted under the kidney capsule of scd beige mice. Four hours prior to transplant, recipient mice were injected with either 10 mg/kg methysergide maleate or vehicle. After transplant, mice were injected every 24 hours with 10 mg/kg methysergide or vehicle for 5 days. After 48 hours without methysergide treatment to allow washout of the drug, streptozotocin (250 mg/kg) was injected into the peritoneal space with 1 mL of normal saline injected subcutaneously for hydration. […] Blood glucose was assessed by glucometer (Freestyle Lite) after a 6 hour fast (9 am-3 pm). […]
To ask if improved human beta cell survival due to HTR1F inhibition could improve glycemia after transplant, human islets were treated with methysergide or vehicle and then a marginal mass of islets was transplanted into mice. […] After 2 days to allow for methysergide clearance, the endogenous mouse beta cells were destroyed using streptozotocin and monitored for diabetes development. […]

HTR1F [5] = molecular target: T1, HTR1F; details: cited from earlier work
[6] = cited from earlier work
[7] = test system: MIN6 cells transfected with GFP-T2A-HTR1F; assay: MIN6 cell death after HTR1F expression (propidium iodide); format: cell-based, mouse; details: 200 ng/mL pre-incubation, 32-40 hours after transfection
Method: GFP+ cells were assessed for cell death by propidium iodide staining 32-40 hours after transfection. […] Significant post-hoc Holm adjusted Student's t-test comparisons are shown. n=33 for each group conducted over 3 independent experiments. Taken together, FIGS. 2A-2D illustrate the induction of primary human beta cell death by HTR1F signaling.
MIN6 cell death: The human HTR1F cDNA was cloned from 293T cDNA and cloned downstream of a CMV promoter GFP-T2A expression vector with the addition of a viral signal sequence and FLAG epitope tag as previously described. The sequence was confirmed by Sanger sequencing. 10,000 MIN6 cells were plated in a 96-well plate. The following day, the cells were transfected with either the parental GFP-T2A expression vector or GFP-T2A-HTR1F using Lipofectamine 2000 (Thermo Fisher). Six hours after transfection, the media was changed to one containing propidium iodide (Thermo Fisher) at 0.3 ug/mL. The percentage of GFP+ cells that were also PI+ was measured by automated fluorescence microscopy (IncuCyte, Essen Biosciences) at 32-40 hours after transfection. For pertussis toxin (Enzo), cells were treated with 200 ng/mL during cell plating and during transfection.

OC(COc1ccc2ccccc2c1)CN1CCC(O)(c2cnc3ccccc3c2)CC1 (centres unmarked) [1-(2-hydroxy-3-(naphthalen-2-yloxy)propyl)-4-(quinolin-3-yl)piperidin-4-ol]
increase in insulin secretion at high glucose concentration (human islets): 40% | inhibition of HTR1F (cAMP luminescence) (HTR1F [1]): inhibition of HTR1F

CN(C)[C@@H]1CCc2[nH]c3ccc(NC(=O)c4ccc(F)cc4)cc3c2C1 [LY344864]
primary human islet cell death (Sytox Green) (primary human islet cell): increase primary human islet cell death | beta cell death (TUNEL+ insulin+ cells) (primary human beta cells): increase beta cell death | EC50 (HTR1F [2]): 3 nM | Ki (other HTR1 receptors): > 500 nM | Ki [3]: 1500 to 5000 nM

CC[C@@H](CO)NC(=O)[C@@H]1C=C2c3cccc4c3c(cn4C)C[C@H]2N(C)C1 [methysergide, (6aR,9R)—N—((S)-1-hydroxybutan-2-yl)-4,7-dimethyl-4,6,6a,7,8,9-hexahydroindolo[4,3-fg]quinoline-9-carboxamide]
effect on death triggered by thapsigargan (dissociated human islets; 30 nM methysergide with 10 μM thapsigargan): prevent death | effect of methysergide alone on islet cell death (dissociated human islets; 30 nM, dissociated cultures): no effect | diabetes-free survival / development of diabetes after streptozotocin [4]: protect mice from the development of diabetes | inhibition of HTR1F (HTR1F [5]): potently inhibit | risk during chronic treatment ([6]; chronic treatment): risk of retroperitoneal fibrosis | insulin secretion in humans ([6]; humans): increase insulin secretion

pertussis toxin
effect on HTR1F-induced cell death [7]: blocked
